According to patent US10072055B2, “Anti-inflammatory pharmaceutical products” (Resother Pharma APS, priority 2011, dated 2018):
“Also recorded” adds a separate entry of the source. Ends that are not written are not given here.

Columns and labels:
FPR2 = molecular target: T1, FPR2 (Homo sapiens, UniProt P25090); test: Binding affinity to FPR2
T1 sequence (P25090 1-351): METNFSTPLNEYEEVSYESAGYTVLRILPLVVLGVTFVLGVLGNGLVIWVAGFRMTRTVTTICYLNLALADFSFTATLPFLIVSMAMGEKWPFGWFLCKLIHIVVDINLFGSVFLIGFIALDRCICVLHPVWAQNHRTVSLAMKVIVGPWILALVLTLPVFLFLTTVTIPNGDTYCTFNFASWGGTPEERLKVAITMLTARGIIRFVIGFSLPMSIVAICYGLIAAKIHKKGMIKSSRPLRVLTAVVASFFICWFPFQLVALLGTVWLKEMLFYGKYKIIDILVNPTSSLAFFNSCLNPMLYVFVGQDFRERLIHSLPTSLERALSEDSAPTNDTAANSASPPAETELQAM

HNE = molecular target: T2, HNE (Homo sapiens, UniProt P08246); test: In vitro degradation/digest in the presence of HNE; format: in vitro ADME
T2 sequence (P08246 30-267): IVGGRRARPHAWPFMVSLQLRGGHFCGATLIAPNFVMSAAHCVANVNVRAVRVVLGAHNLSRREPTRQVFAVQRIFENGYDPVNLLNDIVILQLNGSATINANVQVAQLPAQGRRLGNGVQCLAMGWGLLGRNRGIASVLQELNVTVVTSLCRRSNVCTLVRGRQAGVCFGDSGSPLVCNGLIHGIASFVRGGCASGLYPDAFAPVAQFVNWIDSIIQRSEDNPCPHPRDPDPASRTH
Procedure: FIG. 9 is a logarithmic plot of the degradation over time of three polypeptides of the present disclosure, UGP022 (SEQ ID NO: 5), UGP025 (SEQ ID NO: 7) and UGP026 (SEQ ID NO: 8) in the presence of HNE, a protease implicated in the in vivo cleavage of Annexin 1.
In an attempt to improve the potency and increase the half-life of the UGP022 peptide of the present disclosure (SEQ ID NO: 5), a series of in vitro PR3 and FINE digests were conducted. […] This cleavage site is not believed to have been identified in the literature.
Degradation tests of three polypeptides of the present disclosure, UGP022 (SEQ ID NO:5), UGP025 (SEQ ID NO:7) and UGP026 (SEQ ID NO:8) in the presence of PR3, a protease implicated in the in vivo cleavage of Annexin 1, indicated better stability for polypeptides with Leucine substitution at position 24 relative to a polypeptide lacking that feature. Position 24 corresponds to position 25 of Annexin 1 because all tested polypeptides lack the methionine at position 1 of natural Annexin. A 47-residue polypeptide outperformed an otherwise identical 49-residue polypeptide. Similar results were obtained in degradation tests in the presence of FINE.
FIG. 9 is a logarithmic plot of the degradation over time of three polypeptides of the present disclosure, UGP022 (SEQ ID NO:5), UGP025 (SEQ ID NO:7) and UGP026 (SEQ ID NO:8) in the presence of […], a protease implicated in the in vivo cleavage of Annexin 1. […] Also, a 47-residue polypeptide amidated at its C-terminus outperformed an otherwise identical 49-residue polypeptide amidated at its C-terminus.

reperfusion injury = test: Myocardial ischemia/reperfusion injury, infarct size (LADCA occlusion); format: in vivo, C57/B16 mice; details: i.v. bolus at beginning of reperfusion; 25 min ischemia, 120 min reperfusion
Procedure: (§1) Infarct size in C57/B16 mice (˜30 g body weight) following 25 min ischemia (occlusion of the left anterior descending coronary artery; [LADCA]) and 120 min reperfusion. Vehicle or UGP022 (SEQ ID NO:5) were administered i.v. (over 5 sec bolus) at beginning of reperfusion. Area at Risk was measured following re-occlusion and injection of Evans blue dye. Infarct size was determined following NBT staining of the Area at Risk. Results are mean±SEM of 4 mice per group; **P<0.01
as §1, with “(LADCA occlusion)” for “(occlusion of the left anterior descending coronary artery; [LADCA])”, “Vehicle, UGP025” for “Vehicle or UGP022”, “NO:7) (5 μg) or UGP026 (SEQ ID NO:8) (5 μg)” for “NO:5)”

[1] = Anti-inflammatory properties, test not specified
[2] = tested on: phagocytosis of apoptotic cells; test: Phagocytosis of apoptotic PMN (efferocytosis); format: cell-based
Description: FIG. 5 is a series of bar charts reporting the ability of three polypeptides (UGP022 (SEQ ID NO:5); UGP025 (SEQ ID NO:7) and UGP026 (SEQ ID NO:8))_of the present disclosure, at different concentrations, to mimic an Annexin A1 property of inducing phagocytosis of apoptotic cells.
In recent years important pro-resolving properties have been ascribed to Annexin A1, namely the induction of phagocytosis of apoptotic cells by macrophages and cells alike. This effect is also reliant on FPR2 and shared with other important pro-resolving mediators including the lipoxins and the resolvins.
FIG. 5 is a series of bar charts reporting the ability of three polypeptides (UGP022 (SEQ ID NO:5); UGP025 (SEQ ID NO:7) and UGP026 (SEQ ID NO:8)) of the present disclosure, at different concentrations, to mimic an Annexin A1 property of inducing phagocytosis of apoptotic cells.

Row | Substance | affinity to FPR2 over FPR1 (FPR2) | binding affinity to FPR2 (FPR2) | stability / resistance to HNE degradation (HNE) | tissue protection / reduction of reperfusion injury (infarct size) (reperfusion injury) | anti-inflammatory properties in vitro and in vivo [1] | induction of phagocytosis of apoptotic PMN [2] | cleavage sites by HNE (HNE; in vitro digest) | in vitro results, amidated vs free acid precursor [1]
1 | AMVSEFLKQAWFIENEEQEYVQTLKSSKGGPGSAVSPYPTFNPSSDV-NH2 [UGP025, Leu25-ANXA1(2-48)-NH2] | retain a higher affinity to FPR2 over FPR1 | seems to have a higher affinity to FPR2 than does UGP026 | more resistant to PR3 and FINE than the UGP022 peptide | affording cardioprotection; also recorded: reduce the risk of reperfusion injury relative to a vehicle-only control | seeming more potent | promoted phagocytosis of the apoptotic PMN | – | –
2 | AMVSEFLKQAWFIENEEQEYVQTVKSSKGGPGSAVSPYPTFNPSSDVAA-NH2 [UGP022, ANXA1(2-50)-NH2] | – | binding affinity to the FPR2 in the nanomolar range; also recorded: showing the highest affinity | – | potent tissue protective properties; also recorded: reduce the risk of reperfusion injury relative to a vehicle-only control | – | displaying the higher ability to induce this process | Ala 10 (Ala11 relative to Annexin 1) and Val 21 (Val22 relative to Annexin 1); also recorded: Val 35 (Val36 relative to Annexin 1) was only cleaved by FINE; also recorded: Val 24 (Val25 relative to Annexin 1) | shows better in vitro results than with a free acid precursor
3 | AMVSEFLKQAWFIENEEQEYVQTLKSSKGGPGSAVSPYPTFNPSSDVAA-NH2 [UGP026, Leu25-ANXA1(2-50)-NH2] | retain a higher affinity to FPR2 over FPR1 | – | more resistant to PR3 and FINE than the UGP022 peptide | affording cardioprotection; also recorded: reduce the risk of reperfusion injury relative to a vehicle-only control | possess anti-inflammatory properties both in vitro and in vivo | promoted phagocytosis of the apoptotic PMN | – | –
